Earlier results as cited in US20110200683A1, “Hydrogen peroxide solution producing first aid substance, packaging, and treatment” (Piper Medical, Inc, priority 2010, published 2011).

What was measured:
[1] = temperatures above 50° C
[2] = in water

## NC(N)=O.OO [percarbamide]
[1]
  stability: relatively stable
[2]
  solubility sufficient to create a hydrogen peroxide concentration: ≥ 3%
